One data set concerns Apis mellifera. The conditions noted are these: acute, mortality.
Another data set relates to Bibionidae. The conditions noted are these: chronic/long-term; duration: 28 days.
The subject of another data set is Cyprinus carpio. To be noted: acute; duration: 96 hours; mortality.
The subject of a further data set is Daphnia magna. To be noted: chronic/long-term; duration: 21 days; reproduction.
The test system of another data set is Folsomia candida. To be noted: chronic/long-term.
A further data set relates to Pimephales promelas. To be noted: chronic/long-term; duration: 33 days; growth.
Where [1] appears, read: reproduction developmental, body weight.

Structures are written as SMILES. In brackets after ≈: the same amount, converted by molar mass.

Take `O=C(O)c1cn[nH]c1C(F)F` [1H-3-Difluoromethylpyrazole-4-carboxylic acid]: the NOAEL in the data set on Oryctolagus sp. (setting [1]) stood at 300 mg/kg-day.

With `Cn1cc(C(=O)O)c(C(F)F)n1` [3-(Difluoromethyl)-1-methyl-1H-pyrazole-4-carboxylic acid], the NOAEL in the data set on Oryctolagus sp. (reproduction developmental, no effects) was 250 mg/kg-day.

Take `Cn1cc(C(=O)Nc2ccccc2-c2cc(F)c(F)c(F)c2)c(C(F)F)n1` [Fluxapyroxad]: the LD50 in the data set on Anas platyrhynchos (acute, oral, unspecified, mortality) was greater than 2000 mg/kg-day; with Apis mellifera (dermal), greater than 100 µg/piece; with Apis mellifera (oral, unspecified), greater than 111 µg/piece; with Colinus virginianus (acute, oral, mortality), greater than 2000 mg/kg-day; with Rattus norvegicus (acute, oral, mortality) it was greater than 2000 mg/kg-day. The NOEC was 33.6 mg/kg-day in the data set with Anas platyrhynchos (reproductive); 75.9 mg/L in the data set on Bibionidae; 74.6 mg/kg-day in the data set on Colinus virginianus (reproduction developmental); 0.5 mg/L with Daphnia magna; 2.99 mg/kg in the data set with Folsomia candida; 0.0359 mg/L with Pimephales promelas. In the data set with Tagia sp. (chronic/long-term, duration: 56 days), this compound had an NOEC of 21.3 mg/kg. In addition, the LC50 with Anas platyrhynchos (short-term, oral, feed, mortality) is greater than 1720 mg/kg-day; in the data set on Colinus virginianus (acute, oral, diet, mortality) it was greater than 912 mg/kg-day; with Cyprinus carpio, 0.29 µg/mL (≈ 0.761 µM); with Tagia sp. (acute, mortality), greater than 1000 mg/kg. Moreover, the NOAEL in the data set on Oryctolagus sp. (developmental, development) came out at 25 mg/kg-day; with Rattus norvegicus (chronic, duration: 2 years, organ weight), 2.1 mg/kg-day; with Rattus norvegicus (setting [1]), 25 mg/kg-day; in the data set on Rattus norvegicus (subchronic, duration: 90 days, oral, organ weight) it was 6 mg/kg-day.
